Measured values from US5711966A, “Method of treating malaria with desbutylhalofantrine” (priority 1996, dated 1998).
Entries after “also recorded” stand apart in the source; their conditions may differ. Where two headings read alike, the source gives them in different places.

Columns and labels:
[1] = system: isolated perfused cat heart (QT interval); experiment: QT interval prolongation in isolated perfused heart; settings: concentrations from 1 to 20 μM, pacing cycle length 400 msec
Description: Comparative studies evaluating prolongation of the QT interval using quinidine, halofantrine, and desbutylhalofantrine were performed on isolated perfused animal hearts. […] The ability to treat malaria with this metabolite without causing cardiotoxicity greatly improves the safety of antimalarial treatment.
(§1) A comparison of the parent drug, halofantrine with the metabolite desbutylhalofantrine was conducted to determine which agent was primarily responsible for QT interval prolongation. The effects of halofantrine and its active metabolite (N-desbutylhalofantrine) on repolarization were examined in an isolated perfused heart model. […] In an attempt to further elucidate the mechanism for QT interval prolongation, the effects of racemic halofantrine, its stereoisomers and N-desbutylhalofantrine on repolarizing currents in isolated ventricular myocytes were studied using patch-clamp techniques.
The effects of halofantrine and its metabolite on repolarization were examined in the isolated perfused cat heart by the method of Woosley, et al. (JAMA 269:1532-1536 (1993)). Briefly, hearts were obtained from healthy, mature anesthetized cats and perfused in a Lagendorff apparatus maintained at 37° C. […] The AV node was destroyed by cautery to produce complete heart block and allow observations at slow cycle lengths. […]

[2] = system: delayed rectifier potassium channel; experiment: Block of repolarizing current (delayed rectifier potassium channel) in isolated ventricular myocytes, whole cell patch-clamp; format: cell-based; settings: isolated feline myocytes
Description: as §1
Individual Cardiac Myocytes:
The cardiac electro-pharmacologic effects of halofantrine, its stereoisomers and N-desbutylhalofantrine on repolarizing currents such as the delayed rectifier potassium channel were studied in feline ventricular myocytes in vitro by the method described by Woosley, et al. (JAMA 269:1532-1536 (1993)). Briefly, rod-shaped and quiescent ventricular cells were obtained and used for electrophysiological recordings using the whole cell, single-suction pipette, voltage-clamp ("patch-clamp") technique. Computer-controlled voltage clamp pulses (duration 750 ms) were used to elicit currents. Current signals were directed to a computer for storage and data analysis. […]

[3] = cited from earlier work; for arrhythmia torsades de pointes: in patients receiving the drug; for cardiotoxicity / potentially fatal arrhythmias: use for treatment of malaria
Plasmodium falciparum = experiment: In vitro studies against various clones of Plasmodium falciparum; format: cell-based
Description: Dosage of 500 mg every six hours for three doses on day one with repeat of that dosage on day 7 for a total dosage of 3000 mg is appropriate for most treatment purposes in adults. However, total dosage range of 50 to 5000 mg can be given depending on the condition, age and size of the patient. Desbutylhalofantrine may also be given at dosage of 50 to 1000 mg as a prophylactic measure. Dosage may be given daily or one day per week. Again, dosage will be determined by the clinician in accord with the needs of the particular patient. When given as a prophylactic agent, the administration may be continued for several months.

malaria = settings: teaching of U.S. Pat. No. 5,250,734 to Rossignol, et al; cited from earlier work

Row | Compound | prolongation of the QT interval [1] | arrhythmia torsades de pointes [3] | further results
1 | CCCCN(CCCC)CCC(O)c1cc2c(Cl)cc(Cl)cc2c2cc(C(F)(F)F)ccc12 (racemic) [halofantrine] | resulted in prolongation of the QT interval | torsades de pointes has been seen in patients | block of the delayed rectifier potassium channel [2]: produced a stereo-selective block of the delayed rectifier potassium channel; cardiotoxicity / potentially fatal arrhythmias [3]: can induce potentially fatal arrhythmias; cardiotoxicity / potentially fatal arrhythmias ([3]; listed as Halofantrine): has been shown to cause cardiotoxicity
2 | CCN(CC)CCCC(C)Nc1ccnc2cc(Cl)ccc12 (centres unmarked) [chloroquine] | – | torsades de pointes has been seen in patients | –
3 | CCCCNCCC(O)c1cc2c(Cl)cc(Cl)cc2c2cc(C(F)(F)F)ccc12 (centres unmarked) [desbutylhalofantrine] | did not prolong the QT interval even when concentrations were increased to twenty fold the concentration at which halofantrine resulted in prolongation of the QT interval; also recorded: had minimal effect on the QT interval relative to the baseline | – | potency relative to parent compound halofantrine against clones of Plasmodium falciparum (Plasmodium falciparum): approximately equipotent with the parent compound; effectiveness for treatment of malaria relative to halofantrine (malaria): less effective than halofantrine for treatment of malaria
4 | C=C[C@H]1C[N@@]2CC[C@H]1C[C@@H]2[C@@H](O)c1ccnc2ccc(OC)cc12 [quinidine] | – | torsades de pointes has been seen in patients | –
5 | C=C[C@H]1C[N@@]2CC[C@H]1C[C@H]2[C@H](O)c1ccnc2ccc(OC)cc12 [quinine] | – | torsades de pointes has been seen in patients | –
